{"source": "patent US20250302743A1", "about": "“METHODS OF TREATING DERMATOLOGICAL CONDITIONS AND SYMPTOMS THEREOF” (KAMARI PHARMA LTD., priority 2022, published 2025)", "key": {"[1]": {"tested_on": "DS-Nh mice", "experiment": "DS-Nh mouse model, topical dosing (scratching behavior, skin histology)", "format": "in vivo", "text": "DS-Nh mice raised under conventional conditions spontaneously develop dermatitis and skin abnormalities characterized by hyperkeratosis, reduced basal keratinocytes proliferation, defective differentiation, and keratinization of skin appendages.\nAt the end of the study, the mice were sacrificed, and skin biopsies were paraffin-embedded, stained with hematoxylin and eosin (H&E) and assessed microscopically (FIG. 7)."}, "[2]": {"tested_on": "male C57BL/6J mice", "experiment": "Acetone-ether-water (AEW)-induced pruritus model, oral dosing", "format": "in vivo, mouse", "protocol": "(§1) The efficacy of KM-001 was assessed in an acetone-ether-water (AEW)-induced pruritus model in male C57BL/6J mice, a model induced by daily treatment of an acetone/ether (1:1) mixture and water applied to the animal's cheek. KM-001 (10 mg/kg, 1 mg/kg, 0.1 mg/kg and 0.01 mg/kg) was administered orally to 20 mice. The amount of time spent scratching and the number of bouts during the 20 minutes were recorded by an observer. Blood and skin samples were collected at 0, 0.5 hr, 1 hr and 1.5 hr post dosing."}, "[3]": {"tested_on": "keratinocytes", "conditions": "found in US 2002/0332697 A1, cited from earlier work"}, "[4]": {"experiment": "Saturated solubility, shake flask method, UPLC-UV", "format": "physicochemical", "conditions": "for Saturated Solubility API: RT, 24 hours", "protocol": "Saturated solubility was determined using the shake flask method with excess API at room temperature (RT). It was assumed that equilibrium was attained after 24 hours, and excess solid was separated by ultrafiltration prior to dilution and quantification. Quantification of KM-001 for saturated solubility studies was performed using a qualified UPLC-UV analytical method."}, "[5]": {"experiment": "Plasma concentration in AEW pruritus study, oral dosing", "format": "in vivo, mouse", "conditions": "mice, oral 0.1 mg/kg", "protocol": "as §1"}, "[6]": {"experiment": "Blood concentrations in minipig dermal toxicity study (13 weeks)", "format": "in vivo", "conditions": "for AUC0-tlast / Cmax: MiniPig, 6 g/day", "protocol": "(§2) I: Blood concentrations of KM-001 were evaluated using a validated analytical method as part of the toxicity studies in minipigs and rats."}, "[7]": {"experiment": "28-day oral repeat dose toxicity study, systemic exposure", "format": "in vivo, rat", "conditions": "for AUC0-tlast / Cmax: Rat, oral", "protocol": "as §2"}, "[8]": {"experiment": "Estimated human systemic exposure and safety margins (dose-linear extrapolation from minipig PK)", "protocol": "as §2"}, "[9]": {"target": "TRPV3 (Homo sapiens, UniProt Q8NET8)", "sequence (Q8NET8 whole entry, species assumed)": "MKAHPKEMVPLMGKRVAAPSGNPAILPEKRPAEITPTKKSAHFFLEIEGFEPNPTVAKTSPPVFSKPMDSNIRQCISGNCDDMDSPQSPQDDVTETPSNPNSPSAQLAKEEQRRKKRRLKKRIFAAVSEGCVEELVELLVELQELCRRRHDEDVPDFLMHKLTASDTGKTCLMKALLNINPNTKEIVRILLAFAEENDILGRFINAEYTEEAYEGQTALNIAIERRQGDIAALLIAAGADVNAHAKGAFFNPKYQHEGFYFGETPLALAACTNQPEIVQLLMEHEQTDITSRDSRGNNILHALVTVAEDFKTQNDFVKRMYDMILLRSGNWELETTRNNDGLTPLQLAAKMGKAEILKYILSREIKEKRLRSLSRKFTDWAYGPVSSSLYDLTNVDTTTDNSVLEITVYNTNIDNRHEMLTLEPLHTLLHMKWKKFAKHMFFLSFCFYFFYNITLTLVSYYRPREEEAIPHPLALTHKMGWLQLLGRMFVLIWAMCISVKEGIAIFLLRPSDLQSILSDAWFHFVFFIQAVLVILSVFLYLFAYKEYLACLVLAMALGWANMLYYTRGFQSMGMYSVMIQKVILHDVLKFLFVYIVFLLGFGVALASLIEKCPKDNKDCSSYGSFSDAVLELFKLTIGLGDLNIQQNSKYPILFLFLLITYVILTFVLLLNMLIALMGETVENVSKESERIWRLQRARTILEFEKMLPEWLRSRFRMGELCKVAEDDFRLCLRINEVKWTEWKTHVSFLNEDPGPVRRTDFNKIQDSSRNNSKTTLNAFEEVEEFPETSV", "conditions": "read-out: IC50 (inhibit TRPV3); found in US 2002/0332697 A1; cited from earlier work"}, "[10]": {"conditions": "0.5% formulation, 2.25 mg/kg*day, Week 13"}, "[11]": {"conditions": "1.0% formulation, 4.5 mg/kg*day, Week 13"}}}
{"molecule": "C=CC[C@@H]1/C=C(\\C)C[C@H](C)C[C@H](OC)[C@H]2O[C@@](O)(C(=O)C(=O)N3CCCC[C@H]3C(=O)O[C@H](/C(C)=C/[C@@H]3CC[C@@H](O)[C@H](OC)C3)[C@H](C)[C@@H](O)CC1=O)[C@H](C)C[C@@H]2OC", "note": "[tacrolimus 0.1%, tacrolimus]", "values": [{"measurement": "reduction in scratch", "setting": "[1]; day 14, twice daily topical treatment", "result": 20, "unit": "%"}, {"measurement": "mice exhibiting normalization of skin pathology", "setting": "[1]; two weeks of treatment, H&E histology, partial normalization for tacrolimus", "result": "40 % of mice"}]}
{"molecule": "(S)-2-(1,3-dimethyl-2-6-dioxo-2,3-1h-purin-7(6H)-N-(4-(3-Fluoro-4-2methylpyrrolidin-1-yl)phenyl)thiazol-2-yl)acetamide [KM-001]", "values": [{"measurement": "scratching bouts", "setting": "[2]; oral 0.01 mg/kg", "result": "trended to decrease"}, {"measurement": "scratching time", "setting": "[2]; oral 0.01 mg/kg", "result": "trended to decrease"}, {"measurement": "scratching time", "setting": "[2]; oral 0.1 mg/kg, p<0.001", "result": "significantly decreased"}, {"measurement": "scratching bouts", "setting": "[2]; oral 0.1 mg/kg, p<0.01", "result": "significantly decreased"}, {"measurement": "Ca^+2 flux in keratinocytes", "setting": "[3]", "result": "significantly reduced"}, {"measurement": "differentiation markers", "setting": "[3]; keratinocytes", "result": "normalized"}, {"measurement": "solubility in triglycerides and fatty alcohols", "setting": "[4]", "result": "relatively soluble"}, {"measurement": "Saturated Solubility API", "setting": "[4]; M1: Miglyol 812 N 33.3%, Arlamol E 62.5%, Phenoxy-2-ethanol 4.2%", "result": 13.1, "unit": "% w/w"}, {"measurement": "Saturated Solubility API", "setting": "[4]; M2: Miglyol 812 N 8%, Arlamol E 15%, Macrol-82 77%", "result": 0.7, "unit": "% w/w"}, {"measurement": "Saturated Solubility API", "setting": "[4]; M3: Miglyol 812 N 10%, Kollicream OD 10%, Macrol-82 75%, Kollicream OA 5%", "result": 1.5, "unit": "% w/w"}, {"measurement": "Saturated Solubility API", "setting": "[4]; M6: Miglyol 812 N 20%, Arlamol E 16%, Kollicream OA 10%, Macrol-82 54%", "result": 4.0, "unit": "% w/w"}, {"measurement": "Saturated Solubility API", "setting": "[4]; M10: Miglyol 812 N 20%, Crodamol IPM 21.85%, Kollicream OA 5%, Light Mineral Oil 53.15%", "result": 1.6, "unit": "% w/w"}, {"measurement": "Saturated Solubility API", "setting": "[4]; M13: Miglyol 812 N 47.83%, Kollicream OD 52.17%", "result": 13.0, "unit": "% w/w"}, {"measurement": "Saturated Solubility API", "setting": "[4]; M14: Miglyol 812 N 45.83%, Kollicream OD 50%, Phenoxy-2-ethanol 4.17%", "result": 14.0, "unit": "% w/w"}, {"measurement": "maximum plasma concentration (Cmax)", "setting": "[5]", "result": 1.34, "unit": "ng/mL"}, {"measurement": "AUC0-tlast", "setting": "[6]; 0.1% formulation, 0.45 mg/kg*day, Week 13", "result": 16.6, "unit": "ng·h/mL"}, {"measurement": "Cmax", "setting": "[6]; 0.1% formulation, 0.45 mg/kg*day, Week 13, mean male and female", "result": 2.3, "unit": "ng/mL"}, {"measurement": "AUC0-tlast", "setting": "[6]; [10]", "result": 73.7, "unit": "ng·h/mL"}, {"measurement": "Cmax", "setting": "[6]; [10]", "result": 5.3, "unit": "ng/mL"}, {"measurement": "AUC0-tlast", "setting": "[6]; [11]", "result": 159, "unit": "ng·h/mL"}, {"measurement": "Cmax", "setting": "[6]; [11]", "result": 10.8, "unit": "ng/mL"}, {"measurement": "AUC", "setting": "[6]; minipigs, 4.5 mg KM-001/kg/day", "result": 159.1, "unit": "ng·h/mL"}, {"measurement": "NOAEL", "setting": "[7]; 28-day oral repeat dose toxicity study in the rat", "result": 10, "unit": "mg/kg/day"}, {"measurement": "AUC0-tlast", "setting": "[7]; 1 mg/kg*day, Day 28", "result": 479, "unit": "ng·h/mL"}, {"measurement": "Cmax", "setting": "[7]; 1 mg/kg*day, Day 28, mean male and female", "result": 97, "unit": "ng/mL"}, {"measurement": "AUC0-tlast", "setting": "[7]; 5 mg/kg*day, Day 28", "result": 4570, "unit": "ng·h/mL"}, {"measurement": "Cmax", "setting": "[7]; 5 mg/kg*day, Day 28", "result": 525, "unit": "ng/mL"}, {"measurement": "Cmax", "setting": "[7]; 10 mg/kg*day (NOAEL), Day 28", "result": 968, "unit": "ng/mL"}, {"measurement": "AUC0-tlast", "setting": "[7]; 10 mg/kg*day, Day 28", "result": 8360, "unit": "ng·h/mL"}, {"measurement": "AUC", "setting": "[7]; rat, 28-day oral repeat dose, at NOAEL of 10 mg/kg/day", "result": 8357, "unit": "ng·h/mL"}, {"measurement": "safety margin for AUC, rat vs estimated human exposure", "setting": "[8]; 0.3%", "result": 836, "unit": "fold"}, {"measurement": "AUC, estimated human systemic exposure", "setting": "[8]; 0.3% cream", "result": "approx. 10 ng/mL*h"}, {"measurement": "safety margin for AUC, rat vs estimated human exposure", "setting": "[8]; 1%", "result": 261, "unit": "fold"}, {"measurement": "AUC, estimated human systemic exposure", "setting": "[8]; 1% cream", "result": "~32", "unit": "ng·h/mL"}, {"measurement": "safety margin for Cmax, rat vs estimated human exposure", "setting": "[8]; 1% cream-gel", "result": "approx. 242 fold"}, {"measurement": "Dose MiniPig API (safety factor)", "setting": "[8]; Human dermal 0.3% formulation vs minipig dose", "result": 34}, {"measurement": "Dose MiniPig API (safety factor)", "setting": "[8]; Human dermal 1.0% formulation vs minipig dose", "result": 11}, {"measurement": "IC50", "setting": "[9]", "result": "~3", "unit": "nM"}]}
